# Measurements taken from patent US11896573B2, “Pharmaceutical compositions and pharmacokinetics of a gamma-hydroxybutyric acid derivative” (priority 2020, dated 2024).
# Assay: Single ascending dose study, plasma pharmacokinetics of Compound (1) and GHB
# Format: in vivo, human
# Settings: fasted
# Protocol: The plasma concentrations of Compound (1) and GHB in plasma in healthy human subjects were measured using liquid chromatography tandem mass-spectroscopy and evaluated using PHOENIX™ WINNONLIN® version 8.1 (Pharsight Corporation, USA) and MICROSOFT® EXCEL® (Microsoft Corporation, USA).
# All randomized subjects who received Compound (1), with available pharmacokinetic (PK) data and without relevant deviations interfering with the PK evaluations, were included. Subjects who received only placebo were excluded from the PK population. In addition, the PK population was used for the summaries and analyses of all PK data.
# A randomized, double-blind, single-center, single ascending dose study was undertaken to evaluate the safety, tolerability, and pharmacokinetics of Compound (1) and GHB in healthy subjects.
# Compound (1) was administered to randomized healthy subjects at doses from 0.1 g to 7.25 g as an aqueous solution of Compound (1) in water. The subjects fasted for at least 10 hours overnight with clear liquids allowed prior to dosing and the subjects were fasted for 4 hours after dosing.
# Plasma samples were obtained at various times following oral administration and the plasma concentrations of Compound (1) and GHB were measured.
# [1] = Cohort 1 (0.10 g) single oral dose
# [2] = Cohort 2 (0.50 g) single oral dose
# [3] = Cohort 3 (1.50 g) single oral dose
# [4] = Cohort 4 (3.00 g) single oral dose
# [5] = Cohort 5 (4.50 g) single oral dose
# [6] = Cohort 6 (6.00 g) single oral dose
compound,measurement,setting,value
"CC(C)[C@H](N)C(=O)OCCCC(=O)O [Compound (1), 4-((L-valyl)oxy)butanoic acid]","Compound (1) CL/F, Max",[1],554 L/h
same,"Compound (1) CL/F, Mean",[1],420 L/h
same,"Compound (1) CL/F, Median",[1],408 L/h
same,"Compound (1) CL/F, Min",[1],316 L/h
same,"Compound (1) plasma AUC0-inf, Max",[1],316 ng·h/mL
same,"Compound (1) plasma AUC0-inf, Min",[1],180 ng·h/mL
same,"Compound (1) plasma AUC0-tlast, Max",[1],315 ng·h/mL
same,"Compound (1) plasma AUC0-tlast, Min",[1],180 ng·h/mL
same,"Compound (1) plasma Cmax, Max",[1],669 ng/mL
same,"Compound (1) plasma Cmax, Min",[1],265 ng/mL
same,"Compound (1) plasma t1/2, Max",[1],0.92 h
same,"Compound (1) plasma t1/2, Min",[1],28.8 min
same,"Compound (1) CL/F, Max",[2],500 L/h
same,"Compound (1) CL/F, Mean",[2],400 L/h
same,"Compound (1) CL/F, Median",[2],396 L/h
same,"Compound (1) CL/F, Min",[2],309 L/h
same,"Compound (1) plasma AUC0-inf, Max",[2],1620 ng·h/mL
same,"Compound (1) plasma AUC0-inf, Min",[2],1000 ng·h/mL
same,"Compound (1) plasma AUC0-tlast, Max",[2],1610 ng·h/mL
same,"Compound (1) plasma AUC0-tlast, Min",[2],998 ng·h/mL
same,"Compound (1) plasma Cmax, Max",[2],2470 ng/mL
same,"Compound (1) plasma Cmax, Min",[2],1160 ng/mL
same,"Compound (1) plasma Tmax, Max",[2],1.50 h
same,"Compound (1) plasma t1/2, Max",[2],1.33 h
same,"Compound (1) plasma t1/2, Min",[2],42.6 min
same,"Compound (1) CL/F, Max",[3],959 L/h
same,"Compound (1) CL/F, Mean",[3],673 L/h
same,"Compound (1) CL/F, Median",[3],553 L/h
same,"Compound (1) CL/F, Min",[3],468 L/h
same,"Compound (1) plasma AUC0-inf, Max",[3],3210 ng·h/mL
same,"Compound (1) plasma AUC0-inf, Min",[3],1500 ng·h/mL
same,"Compound (1) plasma AUC0-tlast, Max",[3],4040 ng·h/mL
same,"Compound (1) plasma AUC0-tlast, Min",[3],1500 ng·h/mL
same,"Compound (1) plasma Cmax, Max",[3],5530 ng/mL
same,"Compound (1) plasma Cmax, Min",[3],2100 ng/mL
same,"Compound (1) plasma Tmax, Max",[3],1.50 h
same,"Compound (1) plasma t1/2, Max",[3],1.11 h
same,"Compound (1) plasma t1/2, Min",[3],58.2 min
same,"Compound (1) CL/F, Max",[4],545 L/h
same,"Compound (1) CL/F, Mean",[4],413 L/h
same,"Compound (1) CL/F, Median",[4],408 L/h
same,"Compound (1) CL/F, Min",[4],318 L/h
same,"Compound (1) plasma AUC0-inf, Max",[4],9430 ng·h/mL
same,"Compound (1) plasma AUC0-inf, Min",[4],5500 ng·h/mL
same,"Compound (1) plasma AUC0-tlast, Max",[4],9430 ng·h/mL
same,"Compound (1) plasma AUC0-tlast, Min",[4],5500 ng·h/mL
same,"Compound (1) plasma Cmax, Max",[4],15200 ng/mL
same,"Compound (1) plasma Cmax, Min",[4],7440 ng/mL
same,"Compound (1) plasma t1/2, Max",[4],1.54 h
same,"Compound (1) plasma t1/2, Min",[4],46.8 min
same,"Compound (1) CL/F, Max",[5],586 L/h
same,"Compound (1) CL/F, Mean",[5],416 L/h
same,"Compound (1) CL/F, Median",[5],389 L/h
same,"Compound (1) CL/F, Min",[5],353 L/h
same,"Compound (1) plasma AUC0-inf, Max",[5],12700 ng·h/mL
same,"Compound (1) plasma AUC0-inf, Min",[5],7670 ng·h/mL
same,"Compound (1) plasma AUC0-tlast, Max",[5],12700 ng·h/mL
same,"Compound (1) plasma AUC0-tlast, Min",[5],7660 ng·h/mL
same,"Compound (1) plasma Cmax, Max",[5],16700 ng/mL
same,"Compound (1) plasma Cmax, Min",[5],6790 ng/mL
same,"Compound (1) plasma t1/2, Max",[5],1.50 h
same,"Compound (1) plasma t1/2, Min",[5],49.8 min
same,"Compound (1) CL/F, Max",[6],423 L/h
same,"Compound (1) CL/F, Mean",[6],340 L/h
same,"Compound (1) CL/F, Median",[6],334 L/h
same,"Compound (1) CL/F, Min",[6],232 L/h
same,"Compound (1) plasma AUC0-inf, Max",[6],25800 ng·h/mL
same,"Compound (1) plasma AUC0-inf, Min",[6],14200 ng·h/mL
same,"Compound (1) plasma AUC0-tlast, Max",[6],25800 ng·h/mL
same,"Compound (1) plasma AUC0-tlast, Min",[6],14200 ng·h/mL
same,"Compound (1) plasma Cmax, Max",[6],22900 ng/mL
same,"Compound (1) plasma Cmax, Min",[6],13200 ng/mL
same,"Compound (1) plasma t1/2, Max",[6],1.64 h
same,"Compound (1) plasma t1/2, Min",[6],47.4 min
